Key:
[1] = test system: intestinal tumors in F344-Pirc rats; experiment: Tumor multiplicities in F344-Pirc rats after somatic ENU treatment; format: in vivo, rat; settings: ENU treated, male, age 7 mo
Experimental: Somatic ENU treatment. ENU was dissolved in 95% EtOH and measured with a spectrophotometer at […] to obtain a final concentration of 1 mg/ml. Either the ENU solution or 95% EtOH was injected intraperitoneally into 13-20 day old rats at 18 or 40 mg/kg of body mass. Treated animals were isolated in a laminar flow hood for at least three days before being returned to normal housing.
Tumor multiplicities were determined for both adenomas and microadenomas (neoplasms less than 0.5 mm in diameter). A significant dependence on gender was observed, with males developing more of both types of tumor in all regions of the intestinal tract. There was also a monotonic increase in tumor multiplicity with age, reaching an average of 14 colonic adenomas in males and 9 in females over eight months of age (Tables 3 and 4).
Shown in Table 3 are the tumor multiplicities in Pirc rats. Colonic microadenoma multiplicities could not be accurately measured without histopathological confirmation and were excluded from these analyses. Neoplasms less than 0.5 mm in size were classified as microadenomas.

[2] = test system: intestinal tumors in F344 Pirc rats; experiment: Effect of celecoxib on intestinal tumor multiplicity in F344 Pirc rats (screening for carcinogenesis inhibitory activity); format: in vivo, rat; settings: for Average number of tumors in large intestine / Average number of tumors in small intestine / Average total number of tumors: celecoxib 1200 ppm diet from about 40 days of age, necropsy at about 22 weeks, n=9
Experimental: Shown in Table 5 is an example of the use of a Pirc rat for screening a compound for carcinogenesis inhibitory activity. The effect of celecoxib on intestinal tumor multiplicity in F344 Pirc rats was tested. At about 40 days of age, Pirc rats backcrossed with F344-Tac and F334 control rats were fed celecoxib at 1200 ppm diet. The rats were killed at about 22 weeks of age (about 150-160 days of age). Necropsy was performed to identify 1-2 mm tumors in the intestines.

[3] = N=3, ENU intraperitoneally at 18 or 40 mg/kg in 13-20 day old rats
[4] = Female Pirc rat, celecoxib 1200 ppm diet vs control diet
[5] = Male Pirc rat, celecoxib 1200 ppm diet vs control diet

| Compound | Colonic polyps, mean ± SD [1, 3] | Lesions in small intestine, mean ± SD: Adenomas [1, 3] | Lesions in small intestine, mean ± SD: Microadenomas ([1]; N=3, neoplasms less than 0.5 mm) | Average number of tumors in large intestine ([2]; Female Pirc rat) | Average number of tumors in small intestine ([2]; Female Pirc rat) | Average total number of tumors ([2]; Female Pirc rat) | Relative reduction in number of tumors (large intestine) [2, 4] [%] | Relative reduction in number of tumors (total) [2, 4] [%] | Average number of tumors in large intestine ([2]; Male Pirc rat) | Average number of tumors in small intestine ([2]; Male Pirc rat) | Average total number of tumors ([2]; Male Pirc rat) | Relative reduction in number of tumors (large intestine) [2, 5] [%] | Relative reduction in number of tumors (small intestine) [2, 5] [%] | Relative reduction in number of tumors (total) [2, 5] [%] |
| --- | --- | --- | --- | --- | --- | --- | --- | --- | --- | --- | --- | --- | --- | --- |
| CCN(N=O)C(N)=O [ENU, N-ethyl-N-nitrosourea] | 79 ± 11 | 57 ± 13 | 665 ± 103 | – | – | – | – | – | – | – | – | – | – | – |
| Cc1ccc(-c2cc(C(F)(F)F)nn2-c2ccc(S(N)(=O)=O)cc2)cc1 [Celecoxib, celecoxib] | – | – | – | 0.1 | 0.9 | 1.0 | 93 | 50 | 1.2 | 1.3 | 2.6 | 61 | 82 | 76 |
